Source: PubChem BioAssay AID2060329 (Molecular Pharmacology Branch, DTP, NCI, 2025)

Tested on: MCF7 multi-cell spheroids with HUVEC/MSC, viability
Experiment: Anticancer human tumor MCF7 cell line growth inhibition [IpAb];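 also: spheroids exposed to agents for seven days before readout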
Conditions: for IC50: curve of first compound; for viability, T/C: stronger effect = lower value
Summary of the method: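 Combinations with ipatasertib or abemaciclib were tested on tumour spheroids holding HUVEC (25%) and MSC (15%) alongside 60% malignant cells. Top concentration was at or near clinical Cmax (10 microM if undefined), descending in half-log steps.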

[1] = second compound 0.01 µM, first compound 0.0316 µM
[2] = second compound 0.01 µM, first compound 0.1 µM
[3] = second compound 0.0316 µM, first compound 0.0316 µM
[4] = second compound 0.0316 µM, first compound 0.1 µM
[5] = second compound 0.1 µM, first compound 0.000316 µM
[6] = second compound 0.1 µM, first compound 0.001 µM
[7] = second compound 0.1 µM, first compound 0.00316 µM
[8] = second compound 0.1 µM, first compound 0.01 µM
[9] = second compound 0.1 µM, first compound 0.0316 µM
[10] = second compound 0.1 µM, first compound 0.1 µM
[11] = second compound 0.316 µM, first compound 0.000316 µM
[12] = second compound 0.316 µM, first compound 0.001 µM
[13] = second compound 0.316 µM, first compound 0.00316 µM
[14] = second compound 0.316 µM, first compound 0.01 µM
[15] = second compound 0.316 µM, first compound 0.0316 µM
[16] = second compound 0.316 µM, first compound 0.1 µM
[17] = second compound 1 µM, first compound 0.000316 µM
[18] = second compound 1 µM, first compound 0.001 µM
[19] = second compound 1 µM, first compound 0.00316 µM
[20] = second compound 1 µM, first compound 0.01 µM
[21] = second compound 1 µM, first compound 0.0316 µM
[22] = second compound 1 µM, first compound 0.1 µM

CC(C)n1nc(-c2ccc3oc(N)nc3c2)c2c(N)ncnc21 + CCN1CCN(Cc2ccc(Nc3ncc(F)c(-c4cc(F)c5nc(C)n(C(C)C)c5c4)n3)nc2)CC1
IC50 (second compound 0.01 µM): 10.6 nM
IC50 (second compound 0.0316 µM): 7.31 nM
IC50 (second compound 0.1 µM): 7.34 nM
IC50 (second compound 0.316 µM): 14.5 nM
IC50 (second compound 1 µM): 25.6 nM
viability, T/C (second compound 0.01 µM, first compound 0.000316 µM): 90.9%
viability, T/C (second compound 0.01 µM, first compound 0.001 µM): 103%
viability, T/C (second compound 0.01 µM, first compound 0.00316 µM): 71.1%
viability, T/C (second compound 0.01 µM, first compound 0.01 µM): 55.6%
viability, T/C [1]: 21.6%
viability, T/C [2]: 11.9%
viability, T/C (second compound 0.0316 µM, first compound 0.000316 µM): 89.3%
viability, T/C (second compound 0.0316 µM, first compound 0.001 µM): 90.2%
viability, T/C (second compound 0.0316 µM, first compound 0.00316 µM): 73.3%
viability, T/C (second compound 0.0316 µM, first compound 0.01 µM): 40.8%
viability, T/C [3]: 21%
viability, T/C [4]: 13.8%
viability, T/C [5]: 95.4%
viability, T/C [6]: 94%
viability, T/C [7]: 69.2%
viability, T/C [8]: 44.6%
viability, T/C [9]: 19.3%
viability, T/C [10]: 16.8%
viability, T/C [11]: 116%
viability, T/C [12]: 101%
viability, T/C [13]: 78.2%
viability, T/C [14]: 58.8%
viability, T/C [15]: 34.4%
viability, T/C [16]: 28.7%
viability, T/C [17]: 102%
viability, T/C [18]: 83.1%
viability, T/C [19]: 80.6%
viability, T/C [20]: 55.3%
viability, T/C [21]: 47.8%
viability, T/C [22]: 41.6%

Cn1ncnc1[C@H]1c2n[nH]c(=O)c3cc(F)cc(c23)N[C@@H]1c1ccc(F)cc1 + CC(C)NCC(C(=O)N1CCN(c2ncnc3c2C(C)CC3O)CC1)c1ccc(Cl)cc1
IC50 (second compound 0.1 µM): > 100 nM
IC50 (second compound 0.316 µM): > 100 nM
IC50 (second compound 1 µM): > 100 nM
IC50 (second compound 3.16 µM): 20.3 nM
IC50 (second compound 10 µM): < 0.316 nM
viability, T/C [5]: 98.7%
viability, T/C [6]: 92.8%
viability, T/C [7]: 89.7%
viability, T/C [8]: 87.5%
viability, T/C [9]: 79.8%
viability, T/C [10]: 85.5%
viability, T/C [11]: 74.4%
viability, T/C [12]: 79.9%
viability, T/C [13]: 81.2%
viability, T/C [14]: 72.5%
viability, T/C [15]: 71.8%
viability, T/C [16]: 82.6%
viability, T/C [17]: 67.9%
viability, T/C [18]: 75.6%
viability, T/C [19]: 67.2%
viability, T/C [20]: 62.3%
viability, T/C [21]: 63%
viability, T/C [22]: 56.5%
viability, T/C (second compound 3.16 µM, first compound 0.000316 µM): 59%
viability, T/C (second compound 3.16 µM, first compound 0.001 µM): 56.3%
viability, T/C (second compound 3.16 µM, first compound 0.00316 µM): 58.3%
viability, T/C (second compound 3.16 µM, first compound 0.01 µM): 50.1%
viability, T/C (second compound 3.16 µM, first compound 0.0316 µM): 47.4%
viability, T/C (second compound 3.16 µM, first compound 0.1 µM): 46.4%
viability, T/C (second compound 10 µM, first compound 0.000316 µM): 42.3%
viability, T/C (second compound 10 µM, first compound 0.001 µM): 46.5%
viability, T/C (second compound 10 µM, first compound 0.00316 µM): 39.9%
viability, T/C (second compound 10 µM, first compound 0.01 µM): 36.1%
viability, T/C (second compound 10 µM, first compound 0.0316 µM): 41.5%
viability, T/C (second compound 10 µM, first compound 0.1 µM): 36.4%

C=CC(=O)N1CCN(c2nc(=O)n(-c3c(C)ccnc3C(C)C)c3nc(-c4c(O)cccc4F)c(F)cc23)C(C)C1 (stereo not given) + CCN1CCN(Cc2ccc(Nc3ncc(F)c(-c4cc(F)c5nc(C)n(C(C)C)c5c4)n3)nc2)CC1
IC50 (second compound 0.01 µM): > 10000 nM
IC50 (second compound 0.0316 µM): > 10000 nM
IC50 (second compound 0.1 µM): > 10000 nM
IC50 (second compound 0.316 µM): > 10000 nM
IC50 (second compound 1 µM): 6470 nM
viability, T/C [1]: 97.6%
viability, T/C [2]: 95.6%
viability, T/C (second compound 0.01 µM, first compound 0.316 µM): 112%
viability, T/C (second compound 0.01 µM, first compound 1 µM): 98.4%
viability, T/C (second compound 0.01 µM, first compound 3.16 µM): 91.4%
viability, T/C (second compound 0.01 µM, first compound 10 µM): 58.8%
viability, T/C [3]: 98.5%
viability, T/C [4]: 94.7%
viability, T/C (second compound 0.0316 µM, first compound 0.316 µM): 102%
viability, T/C (second compound 0.0316 µM, first compound 1 µM): 110%
viability, T/C (second compound 0.0316 µM, first compound 3.16 µM): 76.9%
viability, T/C (second compound 0.0316 µM, first compound 10 µM): 48.3%
viability, T/C [9]: 117%
viability, T/C [10]: 107%
viability, T/C (second compound 0.1 µM, first compound 0.316 µM): 118%
viability, T/C (second compound 0.1 µM, first compound 1 µM): 101%
viability, T/C (second compound 0.1 µM, first compound 3.16 µM): 84.4%
viability, T/C (second compound 0.1 µM, first compound 10 µM): 59.4%
viability, T/C [15]: 106%
viability, T/C [16]: 106%
viability, T/C (second compound 0.316 µM, first compound 0.316 µM): 111%
viability, T/C (second compound 0.316 µM, first compound 1 µM): 94.8%
viability, T/C (second compound 0.316 µM, first compound 3.16 µM): 70.7%
viability, T/C (second compound 0.316 µM, first compound 10 µM): 50.9%
viability, T/C [21]: 100%
viability, T/C [22]: 101%
viability, T/C (second compound 1 µM, first compound 0.316 µM): 96.4%
viability, T/C (second compound 1 µM, first compound 1 µM): 78.9%
viability, T/C (second compound 1 µM, first compound 3.16 µM): 62%
viability, T/C (second compound 1 µM, first compound 10 µM): 43.1%
